Assay results: ChEMBL document CHEMBL5338750, “Design of Sonosensitizers Integrated with Resveratrol Motif for Synergetic Sonodynamic Therapy and Nuclear Factor Kappa B Transcription Suppression of Breast Cancer” (J Med Chem, 2023)
Values belong to the compound of their own block, whether it stands above or below them. The source made the active and inactive calls. The calls are words filed in the database; no cut-off is given here.

What was measured:
[1] = test system: MCF7; assay: Induction of apoptosis in human MCF7 cells at 10 uM incubated for 24 hrs by Annexin V-FITC/propidium iodide double staining based flow cytometry analysis; format: functional, cell-based
[2] = test system: MCF7; assay: Cytotoxicity against human MCF7 cells assessed as inhibition of cell growth more than 1 uM measured for 72 hrs by MTT assay; format: functional, cell-based
[3] = Inhibition of LPS-stimulated NO production in mouse RAW264.7 cells at 10 uM incubated for 24 hrs by Griess reagent based microplate reader analysis relative to control; format: functional
[4] = test system: MCF7; assay: Induction of apoptosis in human MCF7 cells assessed as necrotic cells preincubated for 4 hrs followed by ultrasonic sound treatment for 30 sec and measured after 24 hrs by Annexin V-FITC/propidium iodide double staining based flow cytometry analysis (reference value: 1.05%); format: functional; conditions: 28 h
[5] = test system: MCF7; assay: Induction of apoptosis in human MCF7 cells assessed as late apoptotic cells preincubated for 4 hrs followed by ultrasonic sound treatment for 30 sec and measured after 24 hrs by Annexin V-FITC/propidium iodide double staining based flow cytometry analysis (reference value: 0 %); format: functional; conditions: 28 h
[6] = test system: MCF7; assay: Induction of ROS generation in human MCF7 cells assessed as increase in red fluorescence incubated for 4 hrs by Hoechst 33342 staining based confocal microscopic analysis; format: functional, cell-based
[7] = test system: MCF7; assay: Sono-cytotoxicity against human MCF7 cells assessed as inhibition of cell growth preincubated for 4 hrs followed by ultrasonic sound treatment for 2 mins by MTT assay; format: functional, cell-based
[8] = test system: MCF7; assay: Induction of ROS generation in human MCF7 cells assessed as increase in ROS level incubated for 4 hrs by DCFH-DA dye based flow cytometry analysis (Rvb=2.9%); format: functional
[9] = Induction of hyperthermia in solvent assessed as increase in temperature at 10 uM treated with ultrasonic sound for 2 mins and measured after 5 mins; conditions: time 7.0 min
[10] = molecular target: Nuclear factor NF-kappa-B complex (Homo sapiens) (UniProt Q00653+P19838+Q04206); assay: Inhibition of H2O2-induced NFkappaB activation in human MCF7 cells at 1 uM measured for 12 hrs by ELISA analysis; format: cell-based
Sequence of Nuclear factor NF-kappa-B complex (Homo sapiens) (P19838 whole entry, looked up): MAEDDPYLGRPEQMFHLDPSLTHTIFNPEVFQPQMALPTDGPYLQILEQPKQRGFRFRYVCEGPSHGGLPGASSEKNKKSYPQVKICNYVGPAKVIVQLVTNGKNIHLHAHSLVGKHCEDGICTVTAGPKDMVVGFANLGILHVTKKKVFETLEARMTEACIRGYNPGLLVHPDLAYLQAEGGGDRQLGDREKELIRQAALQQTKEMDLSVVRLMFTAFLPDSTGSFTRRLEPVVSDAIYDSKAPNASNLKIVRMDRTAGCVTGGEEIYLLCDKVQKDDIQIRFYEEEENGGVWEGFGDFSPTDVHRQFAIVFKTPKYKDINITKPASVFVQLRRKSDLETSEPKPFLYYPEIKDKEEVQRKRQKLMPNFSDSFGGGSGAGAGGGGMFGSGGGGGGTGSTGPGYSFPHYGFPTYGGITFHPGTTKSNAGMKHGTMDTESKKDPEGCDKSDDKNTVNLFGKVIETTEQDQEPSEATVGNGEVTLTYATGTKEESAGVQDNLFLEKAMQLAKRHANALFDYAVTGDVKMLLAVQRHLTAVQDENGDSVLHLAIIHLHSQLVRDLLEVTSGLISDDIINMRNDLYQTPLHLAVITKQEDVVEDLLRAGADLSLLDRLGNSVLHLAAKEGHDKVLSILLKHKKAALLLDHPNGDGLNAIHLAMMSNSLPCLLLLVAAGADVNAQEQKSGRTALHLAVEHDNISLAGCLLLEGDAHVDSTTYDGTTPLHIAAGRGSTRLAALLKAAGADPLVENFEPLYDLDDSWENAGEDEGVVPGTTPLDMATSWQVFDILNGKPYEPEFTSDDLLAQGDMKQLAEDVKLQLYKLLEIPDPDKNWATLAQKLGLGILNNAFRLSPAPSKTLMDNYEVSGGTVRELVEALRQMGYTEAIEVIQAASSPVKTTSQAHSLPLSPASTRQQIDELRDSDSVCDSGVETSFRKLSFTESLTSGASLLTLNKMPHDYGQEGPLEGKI
Sequence of Nuclear factor NF-kappa-B complex (Homo sapiens) (Q00653 whole entry, looked up): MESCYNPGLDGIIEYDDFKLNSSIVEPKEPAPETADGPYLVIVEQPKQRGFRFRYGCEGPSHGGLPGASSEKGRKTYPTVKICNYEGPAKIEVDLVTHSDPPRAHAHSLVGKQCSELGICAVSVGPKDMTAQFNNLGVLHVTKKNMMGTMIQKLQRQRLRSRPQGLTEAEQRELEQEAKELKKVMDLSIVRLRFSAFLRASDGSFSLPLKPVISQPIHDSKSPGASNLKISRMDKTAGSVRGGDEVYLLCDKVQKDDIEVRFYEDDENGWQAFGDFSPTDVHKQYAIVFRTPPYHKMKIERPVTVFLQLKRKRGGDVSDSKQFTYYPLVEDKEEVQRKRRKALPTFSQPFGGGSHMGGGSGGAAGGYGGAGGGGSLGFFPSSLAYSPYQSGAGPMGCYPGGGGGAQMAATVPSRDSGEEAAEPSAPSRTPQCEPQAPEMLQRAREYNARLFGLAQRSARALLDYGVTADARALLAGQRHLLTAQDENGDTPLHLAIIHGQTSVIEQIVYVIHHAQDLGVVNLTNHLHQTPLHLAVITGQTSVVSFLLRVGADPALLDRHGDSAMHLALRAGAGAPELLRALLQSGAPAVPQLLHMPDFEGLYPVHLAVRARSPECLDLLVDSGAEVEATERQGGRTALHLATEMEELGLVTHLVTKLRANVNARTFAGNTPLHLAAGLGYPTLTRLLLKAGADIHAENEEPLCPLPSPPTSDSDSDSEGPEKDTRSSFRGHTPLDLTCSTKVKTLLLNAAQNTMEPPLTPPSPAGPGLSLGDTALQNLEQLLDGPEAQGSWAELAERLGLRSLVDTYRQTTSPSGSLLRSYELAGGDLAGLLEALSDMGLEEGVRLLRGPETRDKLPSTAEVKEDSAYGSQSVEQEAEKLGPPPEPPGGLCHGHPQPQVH
Sequence of Nuclear factor NF-kappa-B complex (Homo sapiens) (Q04206 whole entry, looked up): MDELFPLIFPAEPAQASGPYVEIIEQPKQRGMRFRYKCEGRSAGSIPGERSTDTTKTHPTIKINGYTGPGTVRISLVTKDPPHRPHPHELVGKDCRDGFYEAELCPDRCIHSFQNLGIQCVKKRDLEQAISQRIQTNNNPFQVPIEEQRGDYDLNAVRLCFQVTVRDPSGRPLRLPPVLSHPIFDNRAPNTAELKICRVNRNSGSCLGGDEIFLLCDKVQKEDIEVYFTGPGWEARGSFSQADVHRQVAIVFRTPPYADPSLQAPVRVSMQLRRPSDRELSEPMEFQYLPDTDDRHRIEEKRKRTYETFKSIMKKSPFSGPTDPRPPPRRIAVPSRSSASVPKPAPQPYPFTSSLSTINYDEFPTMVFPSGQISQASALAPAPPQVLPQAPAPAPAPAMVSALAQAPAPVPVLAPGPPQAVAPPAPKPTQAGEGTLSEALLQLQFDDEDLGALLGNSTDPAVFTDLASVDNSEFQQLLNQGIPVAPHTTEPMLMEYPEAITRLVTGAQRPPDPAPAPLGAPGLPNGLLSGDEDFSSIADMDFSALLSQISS

[11] = test system: MCF7; assay: Induction of ROS generation in human MCF7 cells assessed as […] preincubated for 4 hrs followed by ultrasonic sound treatment for 30 sec by DCFH-DA dye based inverted microscopy; format: functional, cell-based; conditions: time 14430.0 sec
[12] = test system: MCF7; assay: Sono-cytotoxicity against human MCF7 cells assessed as inhibition of cell growth preincubated for 4 hrs followed by ultrasonic sound treatment for 30 sec by MTT assay; format: functional, cell-based
[13] = test system: MCF7; assay: Sono-cytotoxicity against human MCF7 cells assessed as inhibition of cell growth preincubated for 4 hrs followed by ultrasonic sound treatment for 5 mins by MTT assay; format: functional, cell-based
[14] = test system: MCF7; assay: Induction of apoptosis in human MCF7 cells assessed as viable cells preincubated for 4 hrs followed by ultrasonic sound treatment for 30 sec and measured after 24 hrs by Annexin V-FITC/propidium iodide double staining based flow cytometry analysis (reference value: […]); format: functional; conditions: 28 h
[15] = test system: MCF7; assay: Cytotoxicity against human MCF7 cells assessed as inhibition of cell growth incubated for 72 hrs by MTT assay; format: functional, cell-based; conditions: MCF7, 72 h
[16] = test system: MCF7; assay: Induction of apoptosis in human MCF7 cells assessed as early apoptotic cells preincubated for 4 hrs followed by ultrasonic sound treatment for 30 sec and measured after 24 hrs by Annexin V-FITC/propidium iodide double staining based flow cytometry analysis (reference value: 1.83 %); format: functional; conditions: 28 h
[17] = test system: MCF7; assay: Induction of ROS generation in human MCF7 cells assessed as increase in ROS level preincubated for 4 hrs followed by ultrasonic sound treatment for 30 sec by DCFH-DA dye based flow cytometry analysis (Rvb= 3.5%); format: functional; conditions: time 14430 sec; 4.008 h
[18] = Inhibition of LPS-stimulated NO production in mouse RAW264.7 cells incubated for 24 hrs by Griess reagent based microplate reader analysis; format: functional, cell-based; conditions: RAW264.7, 24 h
[19] = test system: MCF7; assay: Cytotoxicity against human MCF7 cells assessed as inhibition of cell growth preincubated for 72 hrs followed by ultrasonic sound treatment for 30 sec by MTT assay; format: functional, cell-based; conditions: for Activity: time 259230.0 sec
[20] = Toxicity in BALB/c mouse xenografted with human MCF7 cells assessed as spleen damage at 1.2 mg/kg, iv administered for 10 days and measured immediately by Hand E staining based analysis; format: organism-based; conditions: in vivo, 240 h, time 10 day
[21] = Drug uptake in BALB/c mouse skin xenografted with human MCF7 cells assessed as accumulation of red fluorescence at 1.5 mg/kg, iv measured at 6 hrs by fluorescence imaging analysis; format: ADME, organism-based, Skin of body; conditions: in vivo
[22] = Toxicity in BALB/c mouse xenografted with human MCF7 cells assessed as liver damage at 1.2 mg/kg, iv administered for 10 days followed by ultrasonic sound treatment for 2 to 6 hrs and measured immediately by Hand E staining based analysis; format: organism-based; conditions: in vivo, time 242-246 hrs
[23] = Toxicity in BALB/c mouse xenografted with human MCF7 cells assessed as kidney damage at 1.2 mg/kg, iv administered for 10 days followed by ultrasonic sound treatment for 2 to 6 hrs and measured immediately by Hand E staining based analysis; format: organism-based; conditions: in vivo, time 242-246 hrs
[24] = Toxicity in BALB/c mouse xenografted with human MCF7 cells assessed as lung damage at 1.2 mg/kg, iv administered for 10 days and measured immediately by Hand E staining based analysis; format: organism-based; conditions: in vivo, 240 h, time 10 day
[25] = Downregulation of IL-6 expression level in serum of BALB/c mouse at 1.5 mg/kg, iv measured at 12 to 24 hrs; format: functional; conditions: time 12-24 hrs
[26] = Toxicity in BALB/c mouse xenografted with human MCF7 cells assessed as heart damage at 1.2 mg/kg, iv administered for 10 days followed by ultrasonic sound treatment for 2 to 6 hrs and measured immediately by Hand E staining based analysis; format: organism-based; conditions: in vivo, time 242-246 hrs
[27] = Toxicity in BALB/c mouse xenografted with human MCF7 cells assessed as liver damage at 1.2 mg/kg, iv administered for 10 days and measured immediately by Hand E staining based analysis; format: organism-based; conditions: in vivo, 240 h, time 10 day
[28] = Toxicity in BALB/c mouse xenografted with human MCF7 cells assessed as drug tolerance at 1.5 mg/kg, iv administered for 10 days followed by ultrasonic sound treatment for 2 to 6 hrs and measured immediately; format: organism-based; conditions: in vivo, time 242-246 hrs
[29] = Toxicity in BALB/c mouse xenografted with human MCF7 cells assessed as decrease in body weight at 1.5 mg/kg, iv administered for 10 days followed by ultrasonic sound treatment for 2 to 6 hrs and measured immediately; format: organism-based; conditions: in vivo, time 242-246 hrs
[30] = test system: MCF7; assay: Effect of IL-6 protein level in human MCF7 cells at 10 uM measured for 24 hrs by ELISA analysis; format: functional, cell-based
[31] = test system: Mus musculus; assay: Induction of hyperthermia in BALB/c mouse xenografted with human MCF7 cells assessed as burning of skin at 1.2 mg/kg, iv administered for 10 days followed by ultrasonic sound treatment for 2 to 6 hrs and measured immediately; format: functional, organism-based; conditions: time 242-246 hrs
[32] = Toxicity in BALB/c mouse xenografted with human MCF7 cells assessed as kidney damage at 1.2 mg/kg, iv administered for 10 days and measured immediately by Hand E staining based analysis; format: organism-based; conditions: in vivo, 240 h, time 10 day
[33] = Toxicity in BALB/c mouse xenografted with human MCF7 cells assessed as lung damage at 1.2 mg/kg, iv administered for 10 days followed by ultrasonic sound treatment for 2 to 6 hrs and measured immediately by Hand E staining based analysis; format: organism-based; conditions: in vivo, time 242-246 hrs
[34] = test system: MCF7; assay: Effect of TNF-alpha protein level in human MCF7 cells at 10 uM measured for 24 hrs by ELISA analysis; format: functional, cell-based
[35] = Drug uptake in BALB/c mouse limb xenografted with human MCF7 cells assessed as accumulation of red fluorescence at 1.5 mg/kg, iv measured at 6 hrs by fluorescence imaging analysis; format: ADME, organism-based; conditions: in vivo
[36] = test system: MCF7; assay: Antitumor activity against human MCF7 cells xenografted in BALB/c mouse assessed as tumor growth inhibition at 1.5 mg/kg, iv administered for 10 days followed by ultrasonic sound treatment for 2 to 6 hrs and measured immediately; format: functional; conditions: time 242-246 hrs, read-out: TGI
[37] = Toxicity in BALB/c mouse xenografted with human MCF7 cells assessed as heart damage at 1.2 mg/kg, iv administered for 10 days and measured immediately by Hand E staining based analysis; format: organism-based; conditions: in vivo, 240 h, time 10 day
[38] = Toxicity in BALB/c mouse xenografted with human MCF7 cells assessed as spleen damage at 1.2 mg/kg, iv administered for 10 days followed by ultrasonic sound treatment for 2 to 6 hrs and measured immediately by Hand E staining based analysis; format: organism-based; conditions: in vivo, time 242-246 hrs
[39] = Drug uptake in BALB/c mouse tumor xenografted with human MCF7 cells assessed as accumulation of red fluorescence at 1.5 mg/kg, iv measured at 6 hrs by fluorescence imaging analysis; format: ADME, organism-based, Neoplasm; conditions: in vivo
[40] = test system: MCF7; assay: Effect of p38 protein level in human MCF7 cells at 10 uM measured for 24 hrs by ELISA analysis; format: functional, cell-based

Structure (SMILES): COc1cc(/C=C/c2ccc(N(c3ccc(/C=C/c4cc(OC)cc(OC)c4)cc3)c3ccc(-c4ccc(-c5ccc(N(c6ccc(/C=C/c7cc(OC)cc(OC)c7)cc6)c6ccc(/C=C/c7cc(OC)cc(OC)c7)cc6)cc5)c5nsnc45)cc3)cc2)cc(OC)c1
- Activity [1]: inactive
- Activity [2]: Active
- inhibition at 10 µM [3]: 72%
- Activity [4]: 2.33%
- Activity [5]: 3.59%
- Activity [6]: Active
- IC50 [7]: 0.83 µM
- Activity [8]: 5.8%
- T [9]: 5.9 °C
- inhibition [10]: Active
- Activity [11]: inactive
- IC50 [12]: 3.5 µM
- IC50 [13]: 0.61 µM
- Activity [14]: 35.4%
- IC50 [15]: 3.6 µM
- IC50 [19]: 3.5 µM
- Activity [16]: 28.7%
- Activity [17]: 97.5%
- EC50 [18]: 0.217 µM

Structure (SMILES): COc1cc(/C=C/C(=O)CC(=O)/C=C/c2ccc(O)c(OC)c2)ccc1O
- Activity [19]: Active

Structure (SMILES): C=CC1=C(C)c2cc3[nH]c(cc4nc(cc5[nH]c(cc1n2)c(C)c5CCC(=O)O)C(CCC(=O)O)=C4C)c(C)c3C=C
- Activity [19]: Active

Continued, in another order:

- inhibition [10]: Active
- EC50 [18]: 0.0729 µM
Structure (SMILES): COc1cc(/C=C/c2ccc(N(c3ccc(Br)cc3)c3ccc(-c4ccc(-c5cccs5)c5nsnc45)cc3)cc2)cc(OC)c1
- Activity [1]: inactive
- Activity [2]: Active
- inhibition at 10 µM [3]: 48%
- Activity [4]: 4.37%
- Activity [5]: 1.74%
- Activity [6]: Active
- IC50 [7]: 2 µM
- Activity [8]: 4.5%
- T [9]: 3.4 °C
- Activity [11]: inactive
- IC50 [12]: 4.2 µM
- IC50 [13]: 1.2 µM
- Activity [14]: 56.4%
- IC50 [15]: 9.2 µM
- Activity [16]: 87.5%
- Activity [17]: 48.1%

- Drug uptake [21]: Active
- inhibition [10]: Active
- Drug uptake [35]: Active
- EC50 [18]: 0.0689 µM
- Drug uptake [39]: Active
Structure (SMILES): COc1cc(/C=C/c2ccc(N(c3ccccc3)c3ccc(-c4ccc(-c5ccc(N(c6ccccc6)c6ccc(/C=C/c7cc(OC)cc(OC)c7)cc6)cc5)c5nsnc45)cc3)cc2)cc(OC)c1
- Activity [20]: Non-Toxic
- Activity [1]: inactive
- Activity [2]: Active
- Activity [22]: Non-Toxic
- inhibition at 10 µM [3]: 76%
- Activity [4]: 0.045%
- Activity [5]: 0.29%
- Activity [6]: Active
- Activity [23]: Non-Toxic
- Activity [24]: Non-Toxic
- IC50 [7]: 0.55 µM
- Activity [8]: 12.4%
- T [9]: 3.9 °C
- Activity [25]: 42%
- Activity [26]: Non-Toxic
- Activity [27]: Non-Toxic
- Activity [28]: Non-Toxic
- Activity [29]: Non-Toxic
- Activity [30]: Active
- Activity [11]: inactive
- IC50 [12]: 1.6 µM
- Activity [31]: Active
- Activity [32]: Non-Toxic
- IC50 [13]: 0.29 µM
- Activity [33]: Non-Toxic
- Activity [14]: 29.7%
- Activity [34]: Active
- IC50 [15]: 2.4 µM
- inhibition in vivo at 1.5 mg/kg [36]: 70%
- Activity [37]: Non-Toxic
- Activity [38]: Non-Toxic
- IC50 [19]: 1.6 µM
- Activity [16]: 70%
- Activity [17]: 92.8%
- Activity [40]: Active
